Test results as given in patent US9758559B2, “Short peptides derived from VDAC1, compositions and methods of use thereof” (B.G. NEGEV TECHNOLOGIES AND APPLICATIONS LTD., AT …, priority 2013, dated 2017).
Where a SMILES comes first, the peptide text is derived from it. [ ]: non-standard residue; d: D form.

Assays:
[1] = system: Human primary glioblastoma cells (U-87); assay: Cell death of U-87 cells, PI staining and flow cytometry; format: cell-based; conditions: 6 h, serum-free medium, PI-positive cells; read-out: IC50, cell death, U87
Description: The efficacy of the peptide comprising amino acids […] of the N-terminal domain of VDAC1, synthesized with D-amino acids (all D-stereomeric peptide) conjugated to the Antp sequence also synthesized from D-amino acids as a CPP (D-Δ(1-14) N-Ter-Antp, SEQ ID NO:9) was further examined for its activity of inducing cell death with brain tumor derived cell lines. Human primary glioblastoma cells (U-87), human neuroblastoma cells (SH-SY5Y) and rat glioblastoma cells (C6) were incubated (4×10^5 cells) for 6 h in a serum-free-medium containing different concentrations of D-Δ1-14N-Ter-Antp (SEQ ID NO:9). The previously disclosed LP4 peptide conjugated to Tf (Tf-D-LP4 peptide, SEQ ID NO:20) was used as a reference of activity. At the end of the incubation time the cells were stained with PI and the level of cell death, reflected by the percentage of PI-positive cells, was determined by flow cytometry.

[2] = system: glioblastoma U-87 cells; assay: Mitochondrial membrane potential analysis (TMRM, FACS); format: cell-based, human; conditions: 3 h incubation
Description: U-87 cells were incubated with the indicated concentrations of D-Δ1-14N-Ter-Antp (SEQ ID NO:9), washed with PBS, incubated with or without the potentiometric fluorescent dye TMRM (200 nM, 20 min), washed with PBS and subjected to FACS analysis. FCCP, allowing for Δψ dissipation, served as a control.
VDAC1 is a key component in regulating the energy production of the cell. It is known that cancer cells are characterized by elevated energy demand. The effects of D-Δ(1-14) N-Ter-Antp on the mitochondrial inner membrane polarization and cellular ATP level were examined using glioblastoma U-87 cells. U-87 cells were incubated for 3 h with the various concentrations of D-Δ1-14N-Ter-Antp or with FCCP (10 μM, control for depolarization) for 1 h.

[3] = system: glioblastoma cell line U-87; assay: Cytochrome c release from mitochondria to cytosol (immunoblot); format: cell-based, human; conditions: U-87 cells, concentration-dependent
Description: Release of cytochrome c (Cyt c) from mitochondria to the cytosol was measured by immunoblots. Cells were incubated for 5 h with the indicated concentration of the peptide, harvested, washed twice with PBS and gently resuspended in ice-cold buffer (100 mM KCl, 2.5 mM MgCl2, 250 mM sucrose, 20 mM HEPES/KOH pH 7.5, 0.2 mMEDTA, 1 mM dithiothreitol, 1 μg/ml leupeptin, 5 μg/ml cytochalasin B and 0.1 mM phenylmethylsulfonyl fluoride) containing 0.025% digitonin and incubated for 10 min on ice. Samples were centrifuged at 10,000 g at 4° C. for 5 min to obtain the supernatants (cytosolic extracts free of mitochondria) and the pellets (fraction that contains mitochondria). The supernatants were analyzed by SDS-PAGE and immunoprobed using anti-Cyto c antibodies (1:2000, BD Pharmingen™ Cat #556433), and then with secondary horseradish peroxidase (HRP)-conjugated anti-mouse antibodies.
The effect of D-Δ(1-14) N-Ter-Antp on apoptosis was examined in the glioblastoma cell line U-87. U-87 cells were incubated with and without the peptide, treated with digitonin (0.02%) and the release of cytochrome c from mitochondria to the cytosolic fraction was analyzed by immunoblotting.

[4] = biological target: T1, Mitochondria-Bound Hexokinase 1 (HK-1) (Rattus norvegicus, UniProt P05708); assay: Detachment of mitochondria-bound HK-1-GFP in HeLa cells (confocal microscopy); format: cell-based; conditions: HeLa cells expressing HK-1-GFP, 6 h
T1 construct: expressed in transfected cells; host or cells: HeLa cells
T1 sequence (P05708 1-918): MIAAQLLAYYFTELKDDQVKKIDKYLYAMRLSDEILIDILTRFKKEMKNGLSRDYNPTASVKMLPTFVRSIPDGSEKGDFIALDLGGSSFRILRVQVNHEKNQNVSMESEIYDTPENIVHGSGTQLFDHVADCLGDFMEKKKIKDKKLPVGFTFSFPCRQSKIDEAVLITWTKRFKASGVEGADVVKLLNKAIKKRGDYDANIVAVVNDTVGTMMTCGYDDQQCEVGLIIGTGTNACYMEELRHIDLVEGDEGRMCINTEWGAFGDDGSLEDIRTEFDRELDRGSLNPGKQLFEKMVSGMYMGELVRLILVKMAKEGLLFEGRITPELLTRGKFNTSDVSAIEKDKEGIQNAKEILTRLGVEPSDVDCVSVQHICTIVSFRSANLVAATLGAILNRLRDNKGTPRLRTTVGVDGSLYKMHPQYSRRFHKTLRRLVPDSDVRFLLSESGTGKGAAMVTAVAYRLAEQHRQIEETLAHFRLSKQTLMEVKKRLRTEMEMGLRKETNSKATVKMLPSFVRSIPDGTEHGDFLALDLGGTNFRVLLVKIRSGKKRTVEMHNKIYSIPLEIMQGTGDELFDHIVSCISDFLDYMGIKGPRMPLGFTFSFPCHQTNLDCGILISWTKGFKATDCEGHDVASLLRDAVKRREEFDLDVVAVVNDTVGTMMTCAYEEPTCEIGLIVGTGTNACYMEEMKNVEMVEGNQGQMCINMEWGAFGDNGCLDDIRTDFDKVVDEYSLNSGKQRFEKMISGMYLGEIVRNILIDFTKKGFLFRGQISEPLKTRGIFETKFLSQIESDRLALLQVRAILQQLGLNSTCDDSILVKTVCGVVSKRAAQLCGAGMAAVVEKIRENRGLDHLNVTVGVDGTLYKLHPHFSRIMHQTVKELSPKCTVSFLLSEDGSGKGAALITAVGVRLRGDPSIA
Description: To visualize HK detachment induced by the D-Δ(1-14) N-terminal-Antp peptide, HeLa cells (3×10^5) were grown on Poly-D-Lysine (PDL)-coated coverslips in a 60 mm dish and transfected with pEGFP-HK-I or with plasmid pEGFP. HK-I-GFP fusion protein, in which GFP was connected to the HK-I C-terminal (pEGFP-HK-I), was constructed using an EcoR1 restriction site to introduce GFP into the 3′ (at the stop codon) of HK1 in plasmid pcDNA3.1 by site-directed mutagenesis with overlapping PCR amplification, using the following primers: 5′-[…]-3; (forward, SEQ ID NO:24) and 5′-[…]-3; (reverse, SEQ ID NO:25).
After 48 h, cells were incubated for 6 h with a serum-free medium containing 0.4% DMSO or with the indicated concentration of D-Δ(1-14) N-Ter-Antp peptide. Cells were washed with PBS, fixed for 20 min with 4% paraformaldehyde prepared in PBS, rinsed for 30 min in PBS and cell imaging was carried out by confocal microscopy (Olympus 1×81).

[5] = system: U-87 cells; assay: TEM visualization of apoptotic cell death; format: cell-based, human; conditions: 2.8 μM peptide
Description: Representative images of transmission electron microscopy (TEM) of untreated cells (FIG. 8A) or cells treated with 2.8 μM of D-Δ1-14N-Ter-Antp (FIG. 8B) are shown.

`CC[C@@H](C)[C@@H](NC(=O)[C@@H](CCCCN)NC(=O)[C@H](NC(=O)[C@@H](CCC(N)=O)NC(=O)[C@@H](CCCNC(=N)N)NC(=O)[C@@H](CC(C)C)NC(=O)CNC(=O)[C@@H](Cc1ccccc1)NC(=O)CNC(=O)[C@@H](Cc1ccc(O)cc1)NC(=O)CNC(=O)[C@@H](CCCCN)NC(=O)[C@H](NC(=O)[C@@H](Cc1ccccc1)NC(=O)[C@H](NC(=O)[C@@H](CC(=O)O)NC(=O)[C@H](N)CCCNC(=N)N)C(C)C)[C@H](C)O)[C@H](C)CC)C(=O)N[C@H](Cc1c[nH]c2ccccc12)C(=O)N[C@H](Cc1ccccc1)C(=O)N[C@H](CCC(N)=O)C(=O)N[C@H](CC(N)=O)C(=O)N[C@H](CCCNC(=N)N)C(=O)N[C@H](CCCNC(=N)N)C(=O)N[C@H](CCSC)C(=O)N[C@H](CCCCN)C(=O)N[C@H](Cc1c[nH]c2ccccc12)C(=O)N[C@H](CCCCN)C(=O)N[C@H](CCCCN)C(=O)O` [D-Δ(1-14) N-Ter-Antp, ALL D-RDVFTKGYGFGL RQIKIWFQNRRMKWKK] (H-[dR][dD][dV][dF][dT][dK]G[dY]G[dF]G[dL][dR][dQ][dI][dK][dI][dW][dF][dQ][dN][dR][dR][dM][dK][dW][dK][dK]-OH) was tested, and the IC50 [1] was 3.75 µM, the “mitochondrial inner membrane polarization” value [2] was “induced mitochondrial inner membrane depolarization” and the “release of cytochrome c from the mitochondria” value [3] was “significantly induced”. For the same compound, the “HK-1-GFP detachment from the mitochondria” value [4] was “diffusion of HK-1-GFP out into the cytosol is observed” and the “apoptotic morphology by TEM” value [5] was “typical morphologic changes associated with apoptosis”.
